Measurements taken from patent US12240844B2 (Voronoi, Inc., priority 2019, dated 2025).

Experiments:
LRRK2 (G2019S) = LRRK2 (G2019S) (Homo sapiens, UniProt Q5S007, G2019S); assay: LRRK2 G2019S enzyme inhibition, ADP-Glo kinase assay; type: biochemical; parameters: purchased SignalChem L10-12GG
Procedure, shortened: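 Activity read as ADP-Glo luminescence, normalized to untreated solvent control, with IC50 (nM) fitted over 12 final compound levels (top 50 μM). Reaction: 2 h, 25° C, human LRRK2 G2019S 16 ng, ATP 25 μM, substrate 0.2 μg, in Tris-HCl pH 7.4 with MgCl2, BSA and DTT.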

LRRK2 = LRRK2 (Homo sapiens, UniProt Q5S007); assay: LRRK2 enzyme inhibition, ADP-Glo kinase assay; type: biochemical; parameters: purchased Invitrogen PR8604B
Procedure, shortened: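 ADP-Glo luminescence read after 2 h at 25° C, 10 μM ATP, 25 ng purified human LRRK2 and […] substrate in Tris-HCl pH7.4 buffer with MgCl2, BSA, DTT. Twelve final concentrations, 50 μM down to 0.000001024 μM; IC50 (nM) from inhibition relative to untreated solvent control.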

LRRK2 (G2019S), sequence (Q5S007 970-2527 G2019S limits assumed): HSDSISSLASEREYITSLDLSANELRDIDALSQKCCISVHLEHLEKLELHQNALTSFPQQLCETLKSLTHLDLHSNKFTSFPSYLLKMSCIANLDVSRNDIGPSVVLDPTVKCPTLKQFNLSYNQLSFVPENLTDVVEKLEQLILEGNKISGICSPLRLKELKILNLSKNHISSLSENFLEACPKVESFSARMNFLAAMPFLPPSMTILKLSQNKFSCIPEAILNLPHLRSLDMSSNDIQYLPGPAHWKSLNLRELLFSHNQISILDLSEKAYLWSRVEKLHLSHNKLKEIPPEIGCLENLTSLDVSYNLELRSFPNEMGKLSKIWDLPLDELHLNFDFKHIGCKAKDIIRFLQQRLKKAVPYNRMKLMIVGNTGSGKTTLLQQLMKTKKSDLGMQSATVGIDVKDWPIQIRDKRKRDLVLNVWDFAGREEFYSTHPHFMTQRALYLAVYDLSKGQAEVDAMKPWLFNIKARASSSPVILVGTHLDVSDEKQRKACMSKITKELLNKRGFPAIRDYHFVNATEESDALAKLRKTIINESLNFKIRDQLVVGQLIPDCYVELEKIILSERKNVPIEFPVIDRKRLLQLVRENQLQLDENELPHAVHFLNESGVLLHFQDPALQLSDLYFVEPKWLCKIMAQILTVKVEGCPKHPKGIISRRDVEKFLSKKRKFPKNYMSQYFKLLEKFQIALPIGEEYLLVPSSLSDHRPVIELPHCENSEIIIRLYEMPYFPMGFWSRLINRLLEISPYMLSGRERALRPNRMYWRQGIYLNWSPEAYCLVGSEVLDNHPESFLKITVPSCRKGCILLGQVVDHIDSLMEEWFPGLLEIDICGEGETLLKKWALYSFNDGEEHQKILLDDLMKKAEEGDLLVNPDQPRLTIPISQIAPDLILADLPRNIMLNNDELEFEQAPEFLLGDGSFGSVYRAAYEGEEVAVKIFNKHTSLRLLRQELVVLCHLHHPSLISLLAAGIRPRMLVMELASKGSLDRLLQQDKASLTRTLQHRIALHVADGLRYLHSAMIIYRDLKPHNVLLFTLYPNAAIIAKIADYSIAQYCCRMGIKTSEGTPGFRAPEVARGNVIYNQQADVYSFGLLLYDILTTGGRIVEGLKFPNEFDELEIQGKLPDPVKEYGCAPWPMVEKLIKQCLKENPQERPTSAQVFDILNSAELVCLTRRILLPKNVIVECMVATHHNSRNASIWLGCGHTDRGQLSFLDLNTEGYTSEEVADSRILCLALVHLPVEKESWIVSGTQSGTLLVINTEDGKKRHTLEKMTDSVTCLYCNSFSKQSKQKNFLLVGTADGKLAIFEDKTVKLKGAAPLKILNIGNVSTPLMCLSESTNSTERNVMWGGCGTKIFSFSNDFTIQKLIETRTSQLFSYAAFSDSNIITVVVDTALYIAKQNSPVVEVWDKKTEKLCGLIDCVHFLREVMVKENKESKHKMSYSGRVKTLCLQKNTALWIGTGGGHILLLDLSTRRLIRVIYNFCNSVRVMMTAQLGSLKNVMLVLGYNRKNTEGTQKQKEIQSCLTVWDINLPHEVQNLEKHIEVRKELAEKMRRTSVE
LRRK2, sequence (Q5S007 970-2527 limits assumed): as the sequence (Q5S007 970-2527 G2019S limits assumed) above, with S1050G counted along it

Compound | IC50 (LRRK2 (G2019S)) [nM] | IC50 (LRRK2) [nM]
CCNc1cc(Nc2ccc(C(=O)N3CCC(N4CCOCC4)CC3)c3c2OCC3)nc2[nH]cc(C(F)(F)F)c12 [Example 90, (7-((4-(ethylamino)-3-(trifluoromethyl)-1H-pyrrolo[2,3-b]pyridin-6-yl)amino)-2,3-dihydrobenzofuran-4-yl)(4-morpholinopiperidin-1-yl)methanone] | < 100 | < 100
O=C(c1ccc(Nc2cc(C3CC3)c3c(C(F)(F)F)c[nH]c3n2)c2c1CCO2)N1CCC(N2CCOCC2)CC1 [Example 93, (7-((4-cyclopropyl-3-(trifluoromethyl)-1H-pyrrolo[2,3-b]pyridin-6-yl)amino)-2,3-dihydrobenzofuran-4-yl)(4-morpholinopiperidin-1-yl)mthanone] | < 100 | < 100
CCCNc1cc(Nc2ccc(C(=O)N3CCC(N4CCOCC4)CC3)c3c2OCCO3)nc2[nH]cc(C(F)(F)F)c12 [Example 162, (4-morpholinopiperidin-1-yl)(8-((4-(propylamino)-3-(trifluoromethyl)-1H-pyrrolo[2,3-b]pyridin-6-yl)amino)-2,3-dihydrobenzo[b] [1,4]dioxin-5-yl)methanone] | < 100 | < 100
O=C(c1ccc(Nc2cc(NC3CC3)c3c(C(F)(F)F)c[nH]c3n2)c2c1CCO2)N1CCC(N2CCOCC2)CC1 [Example 92, (7-((4-(cyclopropylamino)-3-(trifluoromethyl)-1H-pyrrolo[2,3-b]pyridin-6-yl)amino)-2,3-dihydrobenzofuran-4-yl)(4-morpholinopiperidin-1-yl)methanone] | < 100 | < 100
O=C(c1ccc(Nc2cc(C3CC3)c3c(C(F)(F)F)c[nH]c3n2)c2c1OCO2)N1CCC(N2CCOCC2)CC1 [Example 49, (7-((4-cyclopropyl-3-(trifluoromethyl)-1H-pyrrolo[2,3-b]pyridin-6-yl)amino)benzo[d][1,3]dioxol-4-yl)(4-morpholinopiperidin-1-yl)methanone] |  | < 100
COCCNc1cc(Nc2ccc(P3(=O)CCN(C4CC4)CC3)cc2OC)nc2[nH]cc(C#N)c12 [Example 148, 6-((4-(1-cyclopropyl-4-oxido-1,4-azaphosphinan-4-yl)-2-methoxyphenyl)amino)-4-((2-methoxyethyl)amino)-1H-pyrrolo[2,3-b]pyridine-3-carbonitrile] |  | < 100
CCNc1cc(Nc2ccc(P3(=O)CCN(C4CCOCC4)CC3)cc2OC)nc2[nH]cc(C(F)(F)F)c12 [Example 94, 4-(4-((4-(ethylamino)-3-(trifluoromethyl)-1H-pyrrolo[2,3-b]pyridin-6-yl)amino)-3-methoxyphenyl)-1-(tetrahydro-2H-pyran-4-yl)-1,4-azaphosphinane 4-oxide] | 101 to 300 | 101 to 300
N#Cc1c[nH]c2nc(Nc3ccc(C(=O)N4CCC(N5CCOCC5)CC4)c4c3OCCO4)cc(C3CC3)c12 [Example 226, 4-cyclopropyl-6-((8-(4-morpholinopiperidine-1-carbonyl)-2,3-dihydrobenzo[b] [1,4]dioxin-5-yl)amino)-1H-pyrrolo[2,3-b]pyridine-3-carbonitrile] | < 100 | < 100
CNc1cc(Nc2ccc(S(=O)(=O)N3CCC(N4CCOCC4)CC3)c3c2OCCO3)nc2[nH]cc(C(F)(F)F)c12 [Example 233, N^4-methyl-N^6-(8-((4-morpholinopiperidin-1-yl)sulfonyl)-2,3-dihydrobenzo [b] [1,4]dioxin-5-yl)-3-(trifluoromethyl)-1H-pyrrolo[2,3-b]pyridine-4,6-diamine] | < 100 | < 100
COCCNc1cc(Nc2ccc(P3(=O)CCN(C4CC4)CC3)cc2OC)nc2[nH]cc(C(F)(F)F)c12 [Example 207, 1-cyclopropyl-4-(3-methoxy-4-((4-((2-methoxyethyl)amino)-3-(trifluoromethyl)-1H-pyrrolo[2,3-b]pyridin-6-yl)amino)phenyl)-1,4-azaphosphinane 4-oxide] | 101 to 300 | 101 to 300
O=C(c1ccc(Nc2cc(C3CC3)c3c(C(F)(F)F)c[nH]c3n2)c2c1OCCO2)N1CCOCC1 [Example 220, (8-((4-cyclopropyl-3-(trifluoromethyl)-1H-pyrrolo[2,3-b]pyridin-6-yl)amino)-2,3-dihydrobenzo[b] [1,4]dioxin-5-yl)(morpholino) methanone] | 301 to 1000 | 301 to 1000
COCCNc1cc(Nc2ccc(S(=O)(=O)N3CCC(N4CCOCC4)CC3)c3c2OCCO3)nc2[nH]cc(C(F)(F)F)c12 [Example 97, N^4-(2-methoxyethyl)-N^6-(8-((4-morpholonopiperidin-1-yl)sulfonyl)-2,3-dihydrobenzo[b] [1,4]dioxin-5-yl)-3-(trifluoromethyl)-1H-pyrrolo[2,3-b]pyridine-4,6-diamine] | < 100 | < 100
CNc1cc(Nc2ccc(C(=O)N3CCC(N4CCOCC4)CC3)c3c2OCC3)nc2[nH]cc(C(F)(F)F)c12 [Example 234, (7-((4-(methylamino)-3-(trifluoromethyl)-1H-pyrrolo[2,3-b]pyridin-6-yl)amino)-2,3-dihydrobenzofuran-4-yl)(4-morpholinopiperidin-1-yl)methanone] | < 100 | < 100
O=C(c1ccc(Nc2cc(C3CC3)c3c(C(F)(F)F)c[nH]c3n2)c2c1OCCO2)N1CCC(N2CCOCC2)CC1 [Example 221, (8-((4-cyclopropyl-3-(trifluoromethyl)-1H-pyrrolo[2,3-b]pyridin-6-yl)amino)-2,3-dihydrobenzo [b] [1,4]dioxin-5-yl)(4-morpholinopiperidin-1-yl)methanone] | 101 to 300 | 101 to 300
CCNc1cc(Nc2ccc(C(=O)N3C[C@@H]4C[C@H]3CO4)c3c2OCCO3)nc2[nH]cc(C(F)(F)F)c12 [Example 44, ((1S,4S)-2-oxa-5-azabicyclo[2.2.1]heptan-5-yl)(8-((4-(ethylamino)-3-(trifluoromethyl)-1H-pyrrolo[2,3-b]pyridin-6-yl)amino)-2,3-dihydrobenzo[b] [1,4]dioxin-5-yl)methanone] |  | < 100
CCNc1cc(Nc2ccc(S(=O)(=O)N3CCC(N4CCOCC4)CC3)c3c2OCCO3)nc2[nH]cc(C(F)(F)F)c12 [Example 96, N^4-ethyl-N^6-(8-((4-morpholonopiperidin-1-yl)sulfonyl)-2,3-dihydrobenzo [b] [1,4]dioxin-5-yl)-3-(trifluoromethyl)-1H-pyrrolo[2,3-b]pyridine-4,6-diamine] | < 100 | < 100
CCNc1cc(Nc2cc(F)c(S(=O)(=O)N3CCC(N4CCOCC4)CC3)cc2OC)nc2[nH]cc(C(F)(F)F)c12 [Example 266, N^4-ethyl-N^6-(5-fluoro-2-methoxy-4-((4-morpholinopiperidin-1-yl)sulfonyl)phenyl)-3-(trifluoromethyl)-1H-pyrrolo[2,3-b]pyridine-4,6-diamine] | 101 to 300 | 
CNc1cc(Nc2ccc(S(=O)(=O)N3CCC(N4CCOCC4)CC3)cc2OC)nc2[nH]cc(C(F)(F)F)c12 [Example 184, N^6-(2-methoxy-4-((4-morpholinopiperidin-1-yl)sulfonyl)phenyl)-N^4-methyl-3-(trifluoromethyl)-1H-pyrrolo[2,3-b]pyridine-4,6-diamine] | < 100 | 
CCNc1cc(Nc2ccc(C(=O)N3CCC(N4C[C@H]5C[C@@H]4CO5)CC3)c3c2OCC3)nc2[nH]cc(C(F)(F)F)c12 [Example 244, (4-((1R,4R)-2-oxa-5-azabicyclo[2.2.1]heptan-5-yl)piperidin-1-yl)(7-((4-(ethylamino)-3-(trifluoromethyl)-1H-pyrrolo[2,3-b]pyridin-6-yl)amino)-2,3-dihydrobenzofuran-4-yl)methanone] | < 100 | 
CCNc1cc(Nc2ccc(C(=O)N3CCN(C4COC4)CC3)c3c2OCCO3)nc2[nH]cc(C(F)(F)F)c12 [Example 173, (8-((4-(ethylamino)-3-(trifluoromethyl)-1H-pyrrolo[2,3-b]pyridin-6-yl)amino)-2,3-dihydrobenzo[b] [1,4]dioxin-5-yl)(4-(oxetan-3-yl)piperazin-1-yl)methanone] |  | < 100
CCNc1cc(Nc2ccc(P3(=O)CCN(C4CC4)CC3)cc2OC)nc2[nH]cc(C(F)(F)F)c12 [Example 206, 1-cyclopropyl-4-(4-((4-(ethylamino)-3-(trifluoromethyl)-1H-pyrrolo[2,3-b]pyridin-6-yl)amino)-3-methoxyphenyl)-1,4-azaphosphinane 4-oxide] |  | 101 to 300
CCNc1cc(Nc2ccc(C(=O)N3CCN(C4COC4)CC3)c3c2OCC3)nc2[nH]cc(C(F)(F)F)c12 [Example 248, (7-((4-(ethylamino)-3-(trifluoromethyl)-1H-pyrrolo[2,3-b]pyridin-6-yl)amino)-2,3-dihydrobenzofuran-4-yl)(4-(oxetan-3-yl)piperazin-1-yl)methanone] | < 100 | 
CNc1cc(Nc2ccc(C(=O)N3CC[C@H](N4CCOCC4)C3)c3c2OCC3)nc2[nH]cc(C(F)(F)F)c12 [Example 217, (S)-(7-((4-(methylamino)-3-(trifluoromethyl)-1H-pyrrolo[2,3-b]pyridin-6-yl)amino)-2,3-dihydrobenzofuran-4-yl)(3-morpholinopyrrolidin-1-yl)methanone] |  | < 100
CNc1cc(Nc2ccc(P3(=O)CCN(C4CC4)CC3)cc2OC)nc2[nH]cc(C#N)c12 [Example 146, 6-((4-(1-cyclopropyl-4-oxido-1,4-azaphosphinan-4-yl)-2-methoxyphenyl)amino)-4-(methylamino)-1H-pyrrolo[2,3-b]pyridine-3-carbonitrile] |  | < 100
